# Data reported in PubChem BioAssay (NCI).
#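 Interpolation was linear, between the two tested concentrations surrounding the appropriate level; five concentrations were tested over 48 hours in 96-well plates. GI50 is the concentration that inhibits growth by half. TGI denotes the concentration required for complete inhibition of growth.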
# Key:
# Assay in all cases: DTP human tumour cell line panel, 48 h
# 786-0 renal = tested on: 786-0 renal
# A498 renal = tested on: A498 renal
# A549 NSCLC = tested on: A549 NSCLC
# ACHN renal = tested on: ACHN renal
# BT-549 breast = tested on: BT-549 breast
# CAKI-1 renal = tested on: CAKI-1 renal
# CCRF-CEM leukemia = tested on: CCRF-CEM leukemia
# COLO 205 colon = tested on: COLO 205 colon
# DU-145 prostate = tested on: DU-145 prostate
# EKVX NSCLC = tested on: EKVX NSCLC
# HCC-2998 colon = tested on: HCC-2998 colon
# HCT-116 colon = tested on: HCT-116 colon
# HCT-15 colon = tested on: HCT-15 colon
# HL-60(TB) leukemia = tested on: HL-60(TB) leukemia
# HOP-62 NSCLC = tested on: HOP-62 NSCLC
# HOP-92 NSCLC = tested on: HOP-92 NSCLC
# HS 578T breast = tested on: HS 578T breast
# HT29 colon = tested on: HT29 colon
# IGROV1 ovarian = tested on: IGROV1 ovarian
# K-562 leukemia = tested on: K-562 leukemia
# KM12 colon = tested on: KM12 colon
# LOX IMVI melanoma = tested on: LOX IMVI melanoma
# M14 melanoma = tested on: M14 melanoma
# MALME-3M melanoma = tested on: MALME-3M melanoma
# MCF7 breast = tested on: MCF7 breast
# MDA-MB-231 breast = tested on: MDA-MB-231 breast
# MOLT-4 leukemia = tested on: MOLT-4 leukemia
# NCI-H226 lung = tested on: NCI-H226 lung
# NCI-H23 lung = tested on: NCI-H23 lung
# NCI-H460 lung = tested on: NCI-H460 lung
# NCI-H522 lung = tested on: NCI-H522 lung
# NCI/ADR-RES ovarian = tested on: NCI/ADR-RES ovarian
# OVCAR-3 ovarian = tested on: OVCAR-3 ovarian
# OVCAR-4 ovarian = tested on: OVCAR-4 ovarian
# OVCAR-5 ovarian = tested on: OVCAR-5 ovarian
# OVCAR-8 ovarian = tested on: OVCAR-8 ovarian
# PC-3 prostate = tested on: PC-3 prostate
# RPMI-8226 leukemia = tested on: RPMI-8226 leukemia
# RXF 393 renal = tested on: RXF 393 renal
# SF-268 CNS = tested on: SF-268 CNS
# SF-295 CNS = tested on: SF-295 CNS
# SF-539 CNS = tested on: SF-539 CNS
# SK-MEL-2 melanoma = tested on: SK-MEL-2 melanoma
# SK-MEL-28 melanoma = tested on: SK-MEL-28 melanoma
# SK-MEL-5 melanoma = tested on: SK-MEL-5 melanoma
# SK-OV-3 ovarian = tested on: SK-OV-3 ovarian
# SN12C renal = tested on: SN12C renal
# SNB-19 CNS = tested on: SNB-19 CNS
# SNB-75 CNS = tested on: SNB-75 CNS
# SR leukemia = tested on: SR leukemia
# SW-620 colon = tested on: SW-620 colon
# T-47D breast = tested on: T-47D breast
# TK-10 renal = tested on: TK-10 renal
# U251 CNS = tested on: U251 CNS
# UACC-257 melanoma = tested on: UACC-257 melanoma
# UACC-62 melanoma = tested on: UACC-62 melanoma
# UO-31 renal = tested on: UO-31 renal
smiles,measurement,setting,value
Cc1cc(Cl)cc(NS(=O)(=O)c2ccc(-c3cnc(C4CC4)o3)cc2)c1,GI50,786-0 renal,1060 nM
same,TGI,786-0 renal,15900 nM
same,GI50,A498 renal,72.6 nM
same,TGI,A498 renal,1280 nM
same,GI50,A549 NSCLC,565 nM
same,TGI,A549 NSCLC,16600 nM
same,GI50,ACHN renal,758 nM
same,TGI,ACHN renal,14100 nM
same,GI50,BT-549 breast,1630 nM
same,TGI,BT-549 breast,16400 nM
same,GI50,CAKI-1 renal,125 nM
same,TGI,CAKI-1 renal,14500 nM
same,GI50,CCRF-CEM leukemia,172 nM
same,TGI,CCRF-CEM leukemia,17700 nM
same,GI50,COLO 205 colon,322 nM
same,TGI,COLO 205 colon,2710 nM
same,GI50,DU-145 prostate,374 nM
same,TGI,DU-145 prostate,15100 nM
same,GI50,EKVX NSCLC,499 nM
same,TGI,EKVX NSCLC,16700 nM
same,GI50,HCC-2998 colon,745 nM
same,TGI,HCC-2998 colon,12600 nM
same,GI50,HCT-116 colon,347 nM
same,TGI,HCT-116 colon,11100 nM
same,GI50,HCT-15 colon,106 nM
same,TGI,HCT-15 colon,12100 nM
same,GI50,HL-60(TB) leukemia,156 nM
same,TGI,HL-60(TB) leukemia,2570 nM
same,GI50,HOP-62 NSCLC,376 nM
same,TGI,HOP-62 NSCLC,16400 nM
same,GI50,HOP-92 NSCLC,151 nM
same,TGI,HOP-92 NSCLC,4280 nM
same,GI50,HS 578T breast,300 nM
same,TGI,HS 578T breast,14100 nM
same,GI50,HT29 colon,313 nM
same,TGI,HT29 colon,12100 nM
same,GI50,IGROV1 ovarian,331 nM
same,TGI,IGROV1 ovarian,13500 nM
same,GI50,K-562 leukemia,51 nM
same,TGI,K-562 leukemia,> 33200 nM
same,GI50,KM12 colon,303 nM
same,TGI,KM12 colon,13300 nM
same,GI50,LOX IMVI melanoma,279 nM
same,TGI,LOX IMVI melanoma,11100 nM
same,GI50,M14 melanoma,351 nM
same,TGI,M14 melanoma,14200 nM
same,GI50,MALME-3M melanoma,712 nM
same,TGI,MALME-3M melanoma,22200 nM
same,GI50,MCF7 breast,70.2 nM
same,TGI,MCF7 breast,13800 nM
same,GI50,MDA-MB-231 breast,656 nM
same,TGI,MDA-MB-231 breast,14500 nM
same,GI50,MOLT-4 leukemia,451 nM
same,TGI,MOLT-4 leukemia,31100 nM
same,GI50,NCI-H226 lung,454 nM
same,TGI,NCI-H226 lung,9890 nM
same,GI50,NCI-H23 lung,520 nM
same,TGI,NCI-H23 lung,13800 nM
same,GI50,NCI-H460 lung,264 nM
same,TGI,NCI-H460 lung,7220 nM
same,GI50,NCI-H522 lung,465 nM
same,TGI,NCI-H522 lung,14300 nM
same,GI50,NCI/ADR-RES ovarian,161 nM
same,TGI,NCI/ADR-RES ovarian,8910 nM
same,GI50,OVCAR-3 ovarian,122 nM
same,TGI,OVCAR-3 ovarian,3440 nM
same,GI50,OVCAR-4 ovarian,1070 nM
same,TGI,OVCAR-4 ovarian,19800 nM
same,GI50,OVCAR-5 ovarian,565 nM
same,TGI,OVCAR-5 ovarian,15500 nM
same,GI50,OVCAR-8 ovarian,716 nM
same,TGI,OVCAR-8 ovarian,18000 nM
same,GI50,PC-3 prostate,205 nM
same,TGI,PC-3 prostate,11900 nM
same,GI50,RPMI-8226 leukemia,232 nM
same,TGI,RPMI-8226 leukemia,4750 nM
same,GI50,RXF 393 renal,160 nM
same,TGI,RXF 393 renal,556 nM
same,GI50,SF-268 CNS,1270 nM
same,TGI,SF-268 CNS,16500 nM
same,GI50,SF-295 CNS,146 nM
same,TGI,SF-295 CNS,11000 nM
same,GI50,SF-539 CNS,270 nM
same,TGI,SF-539 CNS,3200 nM
same,GI50,SK-MEL-2 melanoma,1050 nM
same,TGI,SK-MEL-2 melanoma,20900 nM
same,GI50,SK-MEL-28 melanoma,1280 nM
same,TGI,SK-MEL-28 melanoma,19500 nM
same,GI50,SK-MEL-5 melanoma,322 nM
same,TGI,SK-MEL-5 melanoma,6980 nM
same,GI50,SK-OV-3 ovarian,783 nM
same,TGI,SK-OV-3 ovarian,22600 nM
same,GI50,SN12C renal,986 nM
same,TGI,SN12C renal,13900 nM
same,GI50,SNB-19 CNS,412 nM
same,TGI,SNB-19 CNS,15600 nM
same,GI50,SNB-75 CNS,128 nM
same,TGI,SNB-75 CNS,1700 nM
same,GI50,SR leukemia,46.5 nM
same,TGI,SR leukemia,19100 nM
same,GI50,SW-620 colon,218 nM
same,TGI,SW-620 colon,15500 nM
same,GI50,T-47D breast,379 nM
same,TGI,T-47D breast,26200 nM
same,GI50,TK-10 renal,6220 nM
same,TGI,TK-10 renal,23000 nM
same,GI50,U251 CNS,436 nM
same,TGI,U251 CNS,15600 nM
same,GI50,UACC-257 melanoma,3180 nM
same,TGI,UACC-257 melanoma,20800 nM
same,GI50,UACC-62 melanoma,174 nM
same,TGI,UACC-62 melanoma,12000 nM
same,GI50,UO-31 renal,798 nM
same,TGI,UO-31 renal,14800 nM
